Assay results from patent publication US11827628B2, “Compositions and methods for inhibition of the JAK pathway” (Rigel Pharmaceuticals, Inc., priority 2005, dated 2023).

Legend:
[1] = test system: IL-4 stimulated expression of CD23 in human Ramos B cells (JAK-1 and JAK-3); assay: Assay for Ramos B-Cell Line Stimulated with IL-4 (CD23 upregulation, FACS); format: cell-based; conditions: Ramos B-cell line stimulated with IL-4; CD23 expression by FACS; read-out: IC50, Example 41
Method in brief: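 Log-phase Ramos cells, 1 h compound pre-incubation at 37 °C; IL-4 50 units/mL final, 20-24 h; CD23-PE stain, FACS; IC50.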

[2] = test system: up-regulation of ICAM-1 (CD54) by IFNγ in U937 human monocytic cells; assay: U937 IFNγ ICAM1 FACS Assay; format: cell-based; conditions: U937 cells stimulated with IFNγ; ICAM-1 expression by FACS; read-out: IC50, Example 44
Method in brief: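 U937 cells in 10% FCS RPMI were preincubated 30 min at 37 °C with an 8-point, 3-fold compound dilution series in duplicate, then stimulated with IFNγ for 18–24 h. Surface ICAM-1 was stained with APC anti-ICAM-1 and read by flow cytometry as geometric mean on live-gated cells. EC50 was derived.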

| Molecule | IC50 [1] [nM] | IC50 [2] [nM] |
| --- | --- | --- |
| CCN(CC)CCNS(=O)(=O)c1cccc(Nc2ncc(F)c(Nc3ccc(OCc4cc(C)on4)cc3)n2)c1 [Compound I-241, N2-[3-(2-N,N-Diethylaminoethyl)aminosulfonylphenyl)-5-fluoro-N4-[4-(5-methylisoxazol-3-yl)methyleneoxyphenyl]-2,4-pyrimidinediamine] | 266 | 2870 |
| Cc1ccc(Nc2ncc(C)c(Nc3ccc(CCC#N)cc3)n2)cc1S(N)(=O)=O [III-11] | 64.2 | 168 |
| Cc1noc(CCc2ccc(Nc3nc(Nc4ccc(F)c(S(N)(=O)=O)c4)ncc3F)cc2)n1 [Compound I-267, N2-(3-Aminosulfonyl-4-fluorophenyl)-5-fluoro-N4-[4-(3-methyl-1,2,4-oxadiazol-5-yl)ethylenephenyl]-2,4-pyrimidinediamine] | 328 | 5070 |
| CCN(CC)CCNS(=O)(=O)c1cccc(Nc2ncc(F)c(Nc3ccc(OCc4csc(C)n4)cc3)n2)c1 [Compound I-283, N2-[3-(2-N,N-Diethylaminoethyl)aminosulfonylphenyl)-5-fluoro-N4-[4-(2-methylthizol-4-yl)methyleneoxyphenyl]-2,4-pyrimidinediamine] | 518 | 2940 |
| Cc1ccc(Nc2ncc(F)c(Nc3ccc(CC#N)cc3)n2)cc1S(N)(=O)=O [III-7, N2-(3-Aminosulfonyl-4-methyl)phenyl-N4-(4-cyanomethyl)phenyl-5-fluoro-2,4-pyrimidinediamine] | 85.1 | 1090 |
| CN1CCC(Oc2ccc(Nc3nc(Nc4cccc(S(N)(=O)=O)c4)ncc3F)cc2)C1 (stereo not drawn) [II-9, N2-(3-Aminosulfonylphenyl)-5-fluoro-N4-(N-methylpyrrolidin-3-yloxyphenyl)-2,4-pyrimidinediamine] | 232 | 2720 |
| Cc1cc(COc2ccc(Nc3nc(Nc4ccc(C)c(S(N)(=O)=O)c4)ncc3F)cc2Cl)no1 [Compound I-221, N2-(3-Aminosulfonyl-4-methylphenyl)-N4-[3-chloro-4-(5-methylisoxazol-3-yl)methyleneoxyphenyl]-5-fluoro-2,4-pyrimidinediamine] | 344 | 4440 |
| Cc1ccc(Nc2ncc(F)c(Nc3ccc(OCC#N)cc3)n2)cc1S(N)(=O)=O [Compound I-20, N2-(3-Aminosulfonyl-4-methyl)phenyl-N4-(4-cyanomethoxy)phenyl-5-fluoro-2,4-pyrimidinediamine] | 36.7 | 339 |
| CN1CCN(S(=O)(=O)c2cccc(Nc3ncc(F)c(Nc4ccc(OCC#N)cc4)n3)c2)CC1 [Compound I-19, N4-(4-Cyanomethoxy)phenyl-5-fluoro-N2-[3-(4-methylpiperazin-1-yl)sulfonyl]phenyl-2,4-pyrimidinediamine] | 509 | 10100 |
| Cc1cc(COc2ccc(Nc3nc(Nc4cc(Cl)c(C)c(S(N)(=O)=O)c4)ncc3F)cc2C)no1 [Compound I-216, N2-(3-Aminosulfonyl-5-chloro-4-methylphenyl)-5-fluoro-N4-[3-methyl-4-(5-methylisoxazol-3-yl)methyleneoxyphenyl]-2,4-pyrimidinediamine] | 205 | 1570 |
| Cc1noc(COc2ccc(Nc3nc(Nc4cccc(S(=O)(=O)NCc5oc(=O)oc5C)c4)ncc3F)cc2)n1 [Compound I-257, N2-{3-[(N-5-Methyl-1,3-dioxolene-2-one-4-yl)methylene]aminosulfonylphenyl}-5-fluoro-N4-[4-(3-methyl-1,2,4-oxadiazol-5-yl)methyleneoxyphenyl]-2,4-pyrimidinediamine] | 145 | 959 |
| 5-Fluoro-N4-[4-(3-methyl-1,2,4-oxadiazol-3-yl)methyleneoxyphenyl]-N2-[(3-N-propanamido)sulfonylphenyl)]-2,4-pyrimidinediamine [Compound I-262] | 78.3 | 1040 |
| COc1cc(Nc2ncc(F)c(Nc3ccc(CC#N)cc3)n2)ccc1S(N)(=O)=O [III-9, N2-(4-Aminosulfonyl-3-methoxy)phenyl-N4-(4-cyanomethyl)phenyl-5-fluoro-2,4-pyrimidinediamine] | 215 | 6980 |
| Cc1nnc(COc2ccc(Nc3nc(Nc4ccc(F)c(S(N)(=O)=O)c4)ncc3F)cc2)o1 [Compound I-278, N2-(3-Aminosulfonyl-4-fluorophenyl)-5-fluoro-N4-[4-(5-methyl-1,3,4-oxadiazol-2-yl)methyleneoxyphenyl]-2,4-pyrimidinediamine] | 193 | 2270 |
| N#CCc1ccc(Nc2nc(Nc3cccc(S(N)(=O)=O)c3)ncc2F)cc1 [III-4, N2-(3-Aminosulfonyl)phenyl-N4-(4-cyanomethyl)phenyl-5-fluoro-2,4-pyrimidinediamine] | 18.7 | 1720 |
| Cc1cc(COc2ccc(Nc3nc(Nc4cc(C)c(F)c(S(N)(=O)=O)c4)ncc3F)cc2F)no1 [Compound I-224, N2-(3-Aminosulfonyl-4-fluoro-5-methylphenyl)-5-fluoro-N4-[3-fluoro-4-(5-methylisoxazol-3-yl)methyleneoxyphenyl]-2,4-pyrimidinediamine] | 36.1 | 494 |
| Cc1cc(COc2ccc(Nc3nc(Nc4ccc(C)c(S(N)(=O)=O)c4)ncc3F)cc2)no1 [Compound I-219, N2-(3-Aminosulfonyl-4-methylphenyl)-5-fluoro-N4-[4-(5-methylisoxazol-3-yl)methyleneoxyphenyl]-2,4-pyrimidinediamine] | 31.6 | 588 |
| Cc1ccc(Nc2ncc(F)c(Nc3cccc(OC4CCCN(C)C4)c3)n2)cc1S(N)(=O)=O (racemic) [II-1, Racemic N2-(3-aminosulfonyl-4-methylphenyl)-5-fluoro-N4-{3-[(1-methylpiperidin-3-yl)oxy]phenyl}-2,4-pyrimidinediamine] | 182 | 8330 |
| CNS(=O)(=O)c1cc(Nc2ncc(F)c(Nc3ccc(OCc4csc(C)n4)cc3)n2)ccc1C [Compound I-282, 5-Fluoro-N2-[3-(N-methylaminosulfony)-4-methylphenyl]-N4-[4-(2-methylthiazol-4-yl)methyleneoxyphenyl]-2,4-pyrimidinediamine] | 339 | 3100 |
| COc1cc(Nc2ncc(F)c(Nc3cc(C)c(OCC#N)c(C)c3)n2)ccc1S(N)(=O)=O [Compound I-32, N2-(4-Aminosulfonyl-3-methoxy)phenyl-N4-(4-cyanomethoxy-3,5-dimethyl)phenyl-5-fluoro-2,4-pyrimidinediamine] | 161 | 1970 |
| Cc1cnc(Nc2ccc(S(N)(=O)=O)cc2)nc1Nc1ccc(CCC#N)cc1 [III-27, N2-(4-Aminosulfonylphenyl)-N4-(4-cyanoethylenephenyl)-5-methyl-2,4-pyrimidinediamine] | 58.3 | 257 |
| CCN(CC)CCNS(=O)(=O)c1ccc(Nc2ncc(F)c(Nc3ccc(OCc4nc(C)no4)cc3)n2)cc1 [Compound I-263, N2-[4-(2-N,N-Diethylaminoethyl)aminosulfonylphenyl)-5-fluoro-N4-[4-(3-methyl-1,2,4-oxadiazol-5-yl)methyleneoxyphenyl]-2,4-pyrimidinediamine] | 124 | 665 |
| Cc1cc(Nc2nc(Nc3ccc(S(N)(=O)=O)cc3)ncc2F)ccc1OCC#N [Compound I-22, N2-(4-Aminosulfonyl)phenyl-N4-(4-cyanomethoxy-3-methyl)phenyl-5-fluoro-2,4-pyrimidinediamine] | 236 | 4430 |
| Cc1cc(COc2ccc(Nc3nc(Nc4cc(C)c(F)c(S(N)(=O)=O)c4)ncc3F)cc2)no1 [Compound I-217, N2-(3-Aminosulfonyl-4-fluoro-5-methylphenyl)-5-fluoro-N4-[4-(5-methylisoxazol-3-yl)methyleneoxyphenyl]-2,4-pyrimidinediamine] | 25 | 478 |
| Cc1cc(Nc2nc(Nc3ccc(C)c(S(N)(=O)=O)c3)ncc2F)ccc1OCC#N [Compound I-24, N2-(3-Aminosulfonyl-4-methyl)phenyl-N4-(4-cyanomethoxy-3-methyl)phenyl-5-fluoro-2,4-pyrimidinediamine] | 54.2 | 1040 |
| NS(=O)(=O)c1cccc(Nc2ncc(F)c(Nc3cccc(CNC(=O)C4CC4)c3)n2)c1 [III-39, N2-(3-aminosulfonyl)phenyl-N4-(3-cyclopropylcarbonylaminomethyl)phenyl-5-fluoro-2,4-pyrimidinediamine] | 117 | 1440 |
| N2-(3-Aminocarbonyl-5-methylphenyl)-5-fluoro-N2-[4-(1-ethylpyrazol-5-yl)amidophenyl)-2,4-pyrimidinediamine [II-20] | 428 | 11500 |
| N2-[3-Aminosulfonyl-4-(4-methylpiperazin-1-yl)phenyl]-5-fluoro-N4-[2-fluoro-4-(5-methylisoxazol-3-yl)methyleneoxyphenyl]-2,4-pyrimidinediamine [Compound I-251] | 167 | 1090 |
| Cc1noc(COc2ccc(Nc3nc(Nc4ccc(S(N)(=O)=O)cc4)ncc3F)cc2)n1 [Compound I-231, N2-(4-Aminosulfonylphenyl)-5-fluoro-N4-[4-(3-methyl-1,2,4-oxadiazol-5-yl)methyleneoxyphenyl]-2,4-pyrimidinediamine] | 94.7 | 8400 |
| Cc1cc(Nc2nc(Nc3cccc(S(N)(=O)=O)c3)ncc2F)cc(C)c1OCC#N [Compound I-26, N2-(3-Aminosulfonyl)phenyl-N4-(4-cyanomethoxy-3,5-dimethyl)phenyl-5-fluoro-2,4-pyrimidinediamine] | 37.8 | 424 |
